Data reported in patent publication US20240101548A1, “HYDROXAMATE COMPOUND, PREPARATION METHOD THEREFOR AND APPLICATION THEREOF” (SHENZHEN CHIPSCREEN BIOSCIENCES CO., LTD., priority 2020, published 2024).
Where two headings read alike, the source gives them in different places.

Tests used:
Format in all cases: cell-based, human
[1] = tested on: IL-2-induced JAK1/JAK3 signal pathway; assay: IL-2-induced proliferation of KHYG-1 cells (JAK1/JAK3 signal); settings: Homo sapiens, read-out: Inhibition activity IC50 on IL-2-induced JAK1/JAK3 signal pathway
Procedure, shortened: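 Controls were wells lacking both compound and cytokine (0%) and compound-free IL-2 wells (100%). C50 was calculated from inhibition rates across doses.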

[2] = tested on: IL-10-induced JAK1/TYK2 signal pathway; assay: IL-10-induced JAK1/TYK2 signal pathway STAT3-Luc reporter gene assay in U2OS cells; settings: U2OS cells, STAT3-Luc reporter, IL-10 10 ng/mL, read-out: Half inhibition dose (IC50) on IL-10-induced JAK1/TYK2 signal pathway
Excerpt: Cytokine IL-10 is one of the main members of IL-10 family. The receptor that cytokine IL-10 binds to consists of two kinds of subunits, i.e., IL-10R1 and IL-10R2, which respectively couple with JAK1 and TYK2. After the coupling of IL-10 with its receptor, interaction of phosphorylation occurs between JAK1 and TYK2 to form STAT3 docking site for phosphorylation of STAT3. The phosphorylated STAT3 enters the nucleus and drives the transcription and expression of downstream genes.
The reporter gene plasmid STAT3-Luc Reporter used in the present invention has luciferase expression sequence as the reporter gene, upstream of which is a promoter sequence containing multiple STAT3 binding sites. When phosphorylated STAT3 induced by IL-10 signal pathway binds to the promoter of STAT3-Luc Reporter plasmid, luciferase is transcribed and expressed. The excitation fluorescence catalyzed by Luciferase can be detected after the addition of […] substrate, whose intensity can quantitively reflect the activation level of the signal pathway.
Human osteosarcoma cell line U20S was commercially available from American Type Culture Collection (ATCC), and relevant culture conditions referred to those from ATCC. It was known that such cell line could express IL-10R2, JAK1, TYK2 and STAT3, therefore, by exogenous expression of IL-10R1 gene, a complete IL-10 signal pathway could be established. The human IL-10R1 subunit overexpression plasmid pCMV3-IL10RA-EGFP was constructed by Shanghai Genechem Co., Ltd., and capable of simultaneously expressing enhanced green fluorescent protein. In the subsequent detection and calculation, the signal of green fluorescent protein in the tested sample was used as a reference for transfection efficiency calibration of the luciferase reporter gene signal. Reporter plasmid STAT3-Luc Reporter was commercially available from Ji Man Biotech (Shanghai) Co., Ltd.
X-tremeGENE 9 DNA Transfection Reagent (Roche) was used for the transfection of plasmid DNA into cells, Cell Culture Lysis 5× reagent (Promega) and Luciferase Assay System (Promega) were used in cell lysate preparation and enzyme-substrate reaction for luciferase reporter gene detection. Green fluorescent protein signal and luciferase reporter gene signal were both detected by Tecan Spark™ 10M multimode microplate reader. The inhibition rate of the tested compound on the IL-10 signal pathway reporter gene signal and the half inhibition dose IC50 were both calculated using Microsoft Excel and GraphPad Prism 7.00 software.
U2OS cell line was inoculated in 96-well plate with flat bottom at 5000 cells per well, and cultured overnight at 37° C. and 5% CO2 followed by plasmid transfection. Following the instructions and using X-tremeGENE 9 DNA Transfection Reagent, pCMV3-IL10RA-EGFP and STAT3-Luc Reporter plasmids were co-transfected into the inoculated U2OS cells. After 24 hours of transfection, the tested compound was added respectively for a final concentration of 0, 0.1, 0.3, 1, 3, 10, 30, 100, or 300 nM. After 6 hours of culture at 37° C. and 5% CO2, IL-10 cytokine (Human IL-10 PEPROTECH 200-10-10UG) was added to each well for a final concentration of 10 ng/mL, the well in which neither compound nor cytokine was added was designated as 0% control well. The culture was continued for 24 hours before testing.
Cell lysate was prepared by using Cell Culture Lysis reagent and transferred to 96-well plate with half-well clear bottom. The green fluorescent protein signal value was detected at Ex485/Em520 using Tecan microplate reader, and recorded. After adding to each well the luciferase substrate from Luciferase Assay System, the signal value of luciferase-substrate reaction was immediately detected at 560 nm using Tecan microplate reader, and recorded.
Using Microsoft Excel software, the signal value of luciferase-substrate reaction of each well was calculated and calibrated based on the signal value of green fluorescent protein of each well. […]

[3] = tested on: EPO-induced JAK2 signal pathway; assay: EPO-induced proliferation of UT-7 cells (JAK2 signal); settings: Homo sapiens, UT7; UT-7 cell proliferation, EPO 10 ng/mL, 72 hours; read-out: Inhibition activity IC50 on EPO-induced JAK2 signal pathway
Procedure, shortened: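 […] was derived from inhibition rates across doses, scaled between wells lacking compound and cytokine (0) and EPO without compound (100), using alamarBlue fluorescence at Ex530/Em590. Compound (final 0-10000 nM) and 10 ng/mL EPO were given to UT-7 cells at 15000 per well for 72 h at 37° C.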

[4] = KHYG-1 cell proliferation, IL-2 10 ng/mL, 72 hours

Row | SMILES | IC50 [1, 4] [µM] | IC50 ([2]; Homo sapiens, U2OS) [µM] | IC50 [3] [µM] | IC50 ([1]; KHYG-1, 72 h) [µM] | IC50 ([2]; Homo sapiens) [µM] | IC50 [2] [µM]
1 | CCONC(=O)c1cnc(Nc2cccc(F)n2)cc1Nc1ccc(C2CC2)cc1N(C)S(C)(=O)=O [Example 22, 4-((4-cyclopropyl-2-(N-methylmethanesulfonamido)phenyl)amino)-N-ethoxy-6-((6-fluoropyridin-2-yl)amino)nicotinamide] | > 10 | 0.00057 | > 10 |  |  | 
2 | CCONC(=O)c1cnc(Nc2ccn(C)n2)cc1Nc1cc(F)c(C2CC2)cc1N(C)S(C)(=O)=O [Example 171, 4-((4-cyclopropyl-5-fluoro-2-(N-methylmethanesulfonamido)phenyl)amino)-N-ethoxy-6-((1-methyl-1H-pyrazol-3-yl)amino)nicotinamide] | > 10 | 0.00154 | > 10 |  |  | 
3 | CONC(=O)c1cnc(Nc2ccc(C#N)cn2)cc1Nc1ccccc1N(C)S(C)(=O)=O [Example 43, 6-((5-cyanopyridin-2-yl)amino)-N-methoxy-4-((2-(N-methylmethanesulfonamido)phenyl)amino)nicotinamide] | > 10 | 0.00118 | > 10 |  |  | 
4 | CCONC(=O)c1cnc(Nc2cc(C)nc(C)n2)cc1Nc1ccc(OC)cc1N(C)S(C)(=O)=O [Example 131, 6-((2,6-dimethylpyrimidin-4-yl)amino)-N-ethoxy-4-((4-methoxy-2-(N-methylmethanesulfonamido)phenyl)amino)nicotinamide] | > 10 | 0.000572 | > 10 |  |  | 
5 | CCONC(=O)c1cnc(Nc2cc(C)nc(C)n2)cc1Nc1ccc(C)cc1N(C)S(C)(=O)=O [Example 133, 6-((2,6-dimethylpyrimidin-4-yl)amino)-N-ethoxy-4-((4-methyl-2-(N-methylmethanesulfonamido)phenyl)amino)nicotinamide] | > 10 | 0.000618 | > 10 |  |  | 
6 | C#Cc1ccc(Nc2cc(Nc3ccc(C#N)cn3)ncc2C(=O)NOCC)c(N(C)S(C)(=O)=O)c1 [Example 142, 6-(5-cyanopyridin-2-ylamino)-N-ethoxy-4-((4-ethynyl-2-(N-methylmethanesulfonamido)phenyl)amino)nicotinamide] | > 10 | 0.00041 | > 10 |  |  | 
7 | CCONC(=O)c1cnc(Nc2cncc(F)c2)cc1Nc1ccc(C2CC2)cc1N(C)S(C)(=O)=O [Example 236, 4-((4-cyclopropyl-2-(N-methylmethanesulfonamido)phenyl)amino)-N-ethoxy-6-((5-fluoropyridin-3-yl)amino)nicotinamide] | > 10 | 0.000587 | > 10 |  |  | 
8 | CONC(=O)c1cnc(Nc2cc(C)c(F)cn2)cc1Nc1ccc(C2CC2)cc1N(C)S(C)(=O)=O [Example 110] | > 10 | 0.00151 | > 10 |  |  | 
9 | CCONC(=O)c1cnc(Nc2ccc(F)nc2C)cc1Nc1ccc(C2CC2)cc1N(C)S(C)(=O)=O [Example 223, 4-((4-cyclopropyl-2-(N-methylmethanesulfonamido)phenyl)amino)-N-ethoxy-6-((6-fluoro-2-methylpyridin-3-yl)amino)nicotinamide] | > 10 | 0.000172 | > 10 |  |  | 
10 | CCONC(=O)c1cnc(Nc2cccnn2)cc1Nc1ccc(C2CC2)cc1N(C)S(C)(=O)=O [Example 153, 4-((4-cyclopropyl-2-(N-methylmethanesulfonamido)phenyl)amino)-N-ethoxy-6-(pyridazin-3-ylamino)nicotinamide] | > 10 | 0.00151 | > 10 |  |  | 
11 | CCONC(=O)c1cnc(NC(=O)C2CC2)cc1Nc1cc(F)cc(-c2ncc(C)cn2)c1OC [Example 226, 6-(cyclopropylcarboxamido)-N-ethoxy-4-((5-fluoro-2-(methoxy)-3-(5-methylpyrimidin-2-yl)phenyl)amino)nicotinamide] | > 10 | 0.000538 | > 10 |  |  | 
12 | CCONC(=O)c1cnc(Nc2cnccn2)cc1Nc1ccc(N2CCOCC2)cc1N(C)S(C)(=O)=O [Example 136, N-ethoxy-4-((2-(N-methylmethanesulfonamido)-4-morpholinophenyl)amino)-6-(pyrazin-2-ylamino)nicotinamide] | > 10 | 0.00249 | > 10 |  |  | 
13 | CONC(=O)c1cnc(Nc2cccc(F)n2)cc1Nc1cccc(-n2cccn2)c1OC [Example 42, 6-((6-fluoropyridin-2-yl)amino)-N-methoxy-4-((2-methoxy-3-(1H-pyrazol-1-yl)phenyl)amino)nicotinamide] | > 10 | 0.00151 | > 10 |  |  | 
14 | CCONC(=O)c1cnc(Nc2cc(C)nc(C)n2)cc1Nc1ccccc1N(C)S(=O)(=O)C1CC1 [Example 173, 6-((2,6-dimethylpyrimidin-4-yl)amino)-N-ethoxy-4-((2-(N-methylcyclopropylsulfonamido)phenyl)amino)nicotinamide] |  |  | > 10 | > 10 | 0.000424 | 
15 | CONC(=O)c1cnc(NC(=O)C2CC2)cc1Nc1ccc(F)cc1N(C)S(C)(=O)=O [Example 70, 6-(cyclopropylcarboxamido)-4-((4-fluoro-2-(N-methylmethanesulfonamido)phenyl)amino)-N-methoxy nicotinamide] | > 10 |  | > 10 |  | 0.00244 | 
16 | CCONC(=O)c1cnc(Nc2cccc(C)n2)cc1Nc1ccc(C2CC2)cc1N(C)S(C)(=O)=O [Example 146, 4-((4-cyclopropyl-2-(N-methylmethanesulfonamido)phenyl)amino)-N-ethoxy-6-((6-methylpyridin-2-yl)amino)nicotinamide] | > 10 |  | > 10 |  |  | 0.00252
17 | CCONC(=O)c1cnc(Nc2cc(C)nc(C)n2)cc1Nc1cccc(-c2ncc(Cl)cn2)c1OC [Example 218, 4-((3-(5-chloropyrimidin-2-yl)-2-methoxyphenyl)amino)-6-((2,6-dimethylpyrimidin-4-yl)amino)-N-ethoxy nicotinamide] | > 10 |  | > 10 |  | 0.000171 | 
18 | CONC(=O)c1cnc(Nc2ccc(C#N)cn2)cc1Nc1ccc(C2CC2)cc1N(C)S(C)(=O)=O [Example 111, 4-((4-cyclopropyl-2-(N-methylmethanesulfonamido)phenyl)amino)-6-((5-cyanopyridin-2-yl)amino)-N-methoxy nicotinamide] | > 10 | 0.00109 | > 10 |  |  | 
